Assay results taken from ChEMBL document CHEMBL1201862, “PubChem BioAssay data set” (2004).
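48-hour exposure; five concentrations; linearly interpolated endpoints. At the GI50, growth is halved.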 The source made the active and inactive calls. Rule as the data show it: active = GI50 up to about 1.1 µM and inactive = higher.

Assays:
Test in all cases: DTP human tumour cell line panel, 48 h
786-0 = system: 786-0
A498 = system: A498
A549 = system: A549
ACHN = system: ACHN
BT-549 = system: BT-549
CAKI-1 = system: CAKI-1
CCRF-CEM = system: CCRF-CEM
COLO 205 = system: COLO 205
DU-145 = system: DU-145
EKVX = system: EKVX
HCC 2998 = system: HCC 2998
HCT-116 = system: HCT-116
HCT-15 = system: HCT-15
HL-60 = system: HL-60
HOP-62 = system: HOP-62
HOP-92 = system: HOP-92
HT-29 = system: HT-29
Hs-578T = system: Hs-578T
IGROV-1 = system: IGROV-1
K562 = system: K562
KM12 = system: KM12
LOX IMVI = system: LOX IMVI
MCF7 = system: MCF7
MDA-MB-231 = system: MDA-MB-231
MDA-MB-435 = system: MDA-MB-435
MDA-N = system: MDA-N
MOLT-4 = system: MOLT-4
Malme-3M = system: Malme-3M
NCI-H226 = system: NCI-H226
NCI-H23 = system: NCI-H23
NCI-H460 = system: NCI-H460
NCI-H522 = system: NCI-H522
NCI/ADR-RES = system: NCI/ADR-RES
OVCAR-3 = system: OVCAR-3
OVCAR-4 = system: OVCAR-4
OVCAR-5 = system: OVCAR-5
OVCAR-8 = system: OVCAR-8
PC-3 = system: PC-3
RPMI-8226 = system: RPMI-8226
RXF 393 = system: RXF 393
SF-268 = system: SF-268
SF-539 = system: SF-539
SK-MEL-28 = system: SK-MEL-28
SK-MEL-2 = system: SK-MEL-2
SK-MEL-5 = system: SK-MEL-5
SK-OV-3 = system: SK-OV-3
SN12C = system: SN12C
SNB-19 = system: SNB-19
SR = system: SR
SW-620 = system: SW-620
T47D = system: T47D
TK-10 = system: TK-10
U-251 = system: U-251
UACC-257 = system: UACC-257
UACC-62 = system: UACC-62
UO-31 = system: UO-31
M14 = system: M14
SF-295 = system: SF-295
SNB-75 = system: SNB-75

CCOC(=O)N/N=C(\CC)NO
GI50 (786-0): > 100 µM (inactive) | GI50 (A498): > 100 µM (inactive) | GI50 (A549): > 100 µM (inactive) | GI50 (ACHN): > 100 µM (inactive) | GI50 (BT-549): > 100 µM (inactive) | GI50 (CAKI-1): > 100 µM (inactive) | GI50 (CCRF-CEM): > 100 µM (inactive) | GI50 (COLO 205): > 100 µM (inactive) | GI50 (DU-145): > 100 µM (inactive) | GI50 (EKVX): > 100 µM (inactive) | GI50 (HCC 2998): > 100 µM (inactive) | GI50 (HCT-116): > 100 µM (inactive) | GI50 (HCT-15): > 100 µM | GI50 (HL-60): > 100 µM (inactive) | GI50 (HOP-62): > 100 µM (inactive) | GI50 (HOP-92): > 100 µM (inactive) | GI50 (HT-29): > 100 µM (inactive) | GI50 (Hs-578T): > 100 µM (inactive) | GI50 (IGROV-1): > 100 µM (inactive) | GI50 (K562): > 100 µM (inactive) | GI50 (KM12): > 100 µM (inactive) | GI50 (LOX IMVI): > 100 µM (inactive) | GI50 (MCF7): > 100 µM (inactive) | GI50 (MDA-MB-231): > 100 µM (inactive) | GI50 (MDA-MB-435): > 100 µM (inactive) | GI50 (MDA-N): > 100 µM (inactive) | GI50 (MOLT-4): > 100 µM (inactive) | GI50 (Malme-3M): > 100 µM (inactive) | GI50 (NCI-H226): > 100 µM (inactive) | GI50 (NCI-H23): > 100 µM (inactive) | GI50 (NCI-H460): > 100 µM (inactive) | GI50 (NCI-H522): > 100 µM (inactive) | GI50 (NCI/ADR-RES): > 100 µM (inactive) | GI50 (OVCAR-3): > 100 µM (inactive) | GI50 (OVCAR-4): > 100 µM (inactive) | GI50 (OVCAR-5): > 100 µM (inactive) | GI50 (OVCAR-8): > 100 µM (inactive) | GI50 (PC-3): > 100 µM (inactive) | GI50 (RPMI-8226): > 100 µM (inactive) | GI50 (RXF 393): > 100 µM (inactive) | GI50 (SF-268): > 100 µM (inactive) | GI50 (SF-539): > 100 µM (inactive) | GI50 (SK-MEL-28): > 100 µM (inactive) | GI50 (SK-MEL-2): > 100 µM (inactive) | GI50 (SK-MEL-5): > 100 µM (inactive) | GI50 (SK-OV-3): > 100 µM (inactive) | GI50 (SN12C): > 100 µM (inactive) | GI50 (SNB-19): > 100 µM (inactive) | GI50 (SR): > 100 µM (inactive) | GI50 (SW-620): > 100 µM (inactive) | GI50 (T47D): > 100 µM (inactive) | GI50 (TK-10): > 100 µM (inactive) | GI50 (U-251): > 100 µM (inactive) | GI50 (UACC-257): > 100 µM (inactive) | GI50 (UACC-62): > 100 µM (inactive) | GI50 (UO-31): > 100 µM (inactive)

CCCCCCCCCCC1OC([C@@H](O)CC[C@H](O)C2CC[C@@H](CCCCCCCC(O)CC3=CC(C)OC3=O)O2)CCC1O (stereo partly specified)
GI50 (786-0): 11.5 µM (inactive) | GI50 (A498): > 14.9 µM (inactive) | GI50 (A549): 5.21 µM (inactive) | GI50 (ACHN): 6.38 µM (inactive) | GI50 (BT-549): 12.4 µM (inactive) | GI50 (CAKI-1): 11.7 µM (inactive) | GI50 (CCRF-CEM): 5.97 µM (inactive) | GI50 (COLO 205): 6.85 µM (inactive) | GI50 (DU-145): 14.6 µM (inactive) | GI50 (EKVX): 2.09 µM (inactive) | GI50 (HCC 2998): 8 µM (inactive) | GI50 (HCT-116): 0.148 µM (active) | GI50 (HCT-15): 10.1 µM | GI50 (HL-60): 2.74 µM (inactive) | GI50 (HOP-62): 4.53 µM (inactive) | GI50 (HOP-92): 8.95 µM (inactive) | GI50 (HT-29): 5.4 µM (inactive) | GI50 (Hs-578T): 2.68 µM (inactive) | GI50 (IGROV-1): 2.61 µM (inactive) | GI50 (K562): 0.204 µM (active) | GI50 (KM12): 2.58 µM (inactive) | GI50 (LOX IMVI): 1.27 µM (inactive) | GI50 (M14): 8.04 µM (inactive) | GI50 (MCF7): 6.79 µM (inactive) | GI50 (MDA-MB-231): > 16.3 µM (inactive) | GI50 (MDA-MB-435): 7.24 µM (inactive) | GI50 (MDA-N): 3.57 µM (inactive) | GI50 (Malme-3M): 14 µM (inactive) | GI50 (NCI-H226): 14 µM (inactive) | GI50 (NCI-H23): 0.363 µM (active) | GI50 (NCI-H460): 1.52 µM (inactive) | GI50 (NCI-H522): 5.89 µM (inactive) | GI50 (NCI/ADR-RES): 1.5 µM (inactive) | GI50 (OVCAR-3): 5.64 µM (inactive) | GI50 (OVCAR-4): 8.61 µM (inactive) | GI50 (OVCAR-5): > 15 µM (inactive) | GI50 (OVCAR-8): 3.79 µM (inactive) | GI50 (PC-3): 5.94 µM (inactive) | GI50 (RPMI-8226): 3.59 µM (inactive) | GI50 (RXF 393): > 9.77 µM (inactive) | GI50 (SF-268): 2.35 µM (inactive) | GI50 (SF-295): 0.708 µM (active) | GI50 (SF-539): 14.4 µM (inactive) | GI50 (SK-MEL-28): > 17.9 µM (inactive) | GI50 (SK-MEL-2): 9.08 µM (inactive) | GI50 (SK-MEL-5): 0.115 µM (active) | GI50 (SK-OV-3): 7.67 µM (inactive) | GI50 (SN12C): 9.12 µM (inactive) | GI50 (SNB-19): 9.46 µM (inactive) | GI50 (SNB-75): 3.41 µM (inactive) | GI50 (SR): 0.0025 µM (active) | GI50 (SW-620): > 17.9 µM (inactive) | GI50 (T47D): 7.71 µM (inactive) | GI50 (TK-10): 11.7 µM (inactive) | GI50 (U-251): 14.4 µM (inactive) | GI50 (UACC-257): 0.622 µM (active) | GI50 (UACC-62): 4.72 µM (inactive) | GI50 (UO-31): 4.41 µM (inactive)

Cc1ccc(-c2c3c(n(C4OC(CO)C(O)C(O)C4O)c(=S)c2C#N)CC(C)(C)CC3=O)cc1 (stereo unspecified)
GI50 (786-0): 47.4 µM (inactive) | GI50 (A498): > 100 µM (inactive) | GI50 (A549): > 100 µM (inactive) | GI50 (ACHN): 65.5 µM (inactive) | GI50 (BT-549): 50 µM (inactive) | GI50 (CAKI-1): > 100 µM (inactive) | GI50 (CCRF-CEM): 68.2 µM (inactive) | GI50 (COLO 205): > 10 µM (inactive) | GI50 (DU-145): > 100 µM (inactive) | GI50 (HCC 2998): > 100 µM (inactive) | GI50 (HCT-116): 40.4 µM (inactive) | GI50 (HCT-15): 45.9 µM | GI50 (HL-60): 41.5 µM (inactive) | GI50 (HOP-62): > 100 µM (inactive) | GI50 (HOP-92): 68.7 µM (inactive) | GI50 (HT-29): 33.1 µM (inactive) | GI50 (Hs-578T): 70.6 µM (inactive) | GI50 (IGROV-1): > 100 µM (inactive) | GI50 (K562): 45.2 µM (inactive) | GI50 (KM12): > 100 µM (inactive) | GI50 (LOX IMVI): 48.3 µM (inactive) | GI50 (M14): 93.5 µM (inactive) | GI50 (MCF7): 45.7 µM (inactive) | GI50 (MDA-MB-231): 80.5 µM (inactive) | GI50 (MDA-MB-435): 65.2 µM (inactive) | GI50 (MDA-N): 46 µM (inactive) | GI50 (MOLT-4): 36.5 µM (inactive) | GI50 (Malme-3M): 96.6 µM (inactive) | GI50 (NCI-H226): 48.6 µM (inactive) | GI50 (NCI-H23): > 100 µM (inactive) | GI50 (NCI-H460): 52.2 µM (inactive) | GI50 (NCI-H522): > 100 µM (inactive) | GI50 (NCI/ADR-RES): > 100 µM (inactive) | GI50 (OVCAR-3): > 100 µM (inactive) | GI50 (OVCAR-4): > 100 µM (inactive) | GI50 (OVCAR-5): > 100 µM (inactive) | GI50 (OVCAR-8): 71.9 µM (inactive) | GI50 (PC-3): 41.1 µM (inactive) | GI50 (RPMI-8226): 32.7 µM (inactive) | GI50 (RXF 393): > 100 µM (inactive) | GI50 (SF-268): > 100 µM (inactive) | GI50 (SF-295): > 100 µM (inactive) | GI50 (SF-539): 39.6 µM (inactive) | GI50 (SK-MEL-28): 52.2 µM (inactive) | GI50 (SK-MEL-2): 80.9 µM (inactive) | GI50 (SK-MEL-5): 34.6 µM (inactive) | GI50 (SN12C): > 100 µM (inactive) | GI50 (SNB-19): > 100 µM (inactive) | GI50 (SNB-75): 49.1 µM (inactive) | GI50 (SR): 37 µM (inactive) | GI50 (SW-620): > 100 µM (inactive) | GI50 (T47D): 34.4 µM (inactive) | GI50 (TK-10): > 100 µM (inactive) | GI50 (U-251): 52.4 µM (inactive) | GI50 (UACC-257): > 100 µM (inactive) | GI50 (UACC-62): 46.5 µM (inactive) | GI50 (UO-31): 60 µM (inactive)
